Assays:
PRMT5 [1] = target: T1, PRMT5 (Homo sapiens, UniProt O14744); assay: PRMT5 biochemical IC50 assay with SAM as cofactor; settings: PRMT5, SAM as cofactor; read-out: SAM IC50
T1 construct: purchased Viva (custom protein)

PRMT5 [2] = target: T1, PRMT5; assay: PRMT5 biochemical IC50 assay with no cofactor; settings: PRMT5, no cofactor; read-out: No Cofactor/rel IC50
From the text: Table 1 indicates IC50 values (μM) against PRMT5 for exemplary compounds in the presence of SAM as cofactor, with no cofactor, and with MTA as cofactor, respectively (columns 4-6). […] Ki values can be calculated from the IC50 values as described in the Examples section. As detailed in the Examples section, for the assay performed in the presence of SAM, IC50=Ki×1.5 (Ki=IC50/1.5).

PRMT5 [3] = target: T1, PRMT5; assay: PRMT5 biochemical IC50 assay with MTA as cofactor; settings: PRMT5, MTA as cofactor; read-out: MTA IC50
[4] = test system: HAP1 MTAP-intact cell line; assay: SDMA in-cell western assay, HAP1 MTAP-intact; type: cell-based; settings: Homo sapiens, HAP1, SDMA in-cell western, HAP1 MTAP-intact; read-out: MTAP HAP1 intact IC50
Outline: (§1)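 IC50 values come from SDMA signal quantified by in-cell western in two HAP1 lines, one with native MTAP levels and one lacking MTAP.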

[5] = test system: HAP1 MTAP-deleted cell line; assay: SDMA in-cell western assay, HAP1 MTAP-deleted; type: cell-based; settings: for IC50: Homo sapiens, HAP1, SDMA in-cell western, HAP1 MTAP-deleted, read-out: HAP 1 MTAP deleted IC50; for MTAP intact/deleted ratio: IC50 ratio HAP1 MTAP-intact / HAP1 MTAP-deleted, SDMA in-cell western
Outline: as §1

[6] = test system: HAP1 MTAP-deleted cell line; assay: Viability assay, MTAP-deleted cell line; type: cell-based; settings: Homo sapiens, HAP1, viability IC50, MTAP-deleted cell line; read-out: HAP1 MTAP deleted viability
From the text: Table 1 additionally indicates IC50 values in a viability assay for the MTAP-deleted cell line (column 10), indicating the effect of treatment with compound on cell survival.

T1 sequence (O14744 whole entry): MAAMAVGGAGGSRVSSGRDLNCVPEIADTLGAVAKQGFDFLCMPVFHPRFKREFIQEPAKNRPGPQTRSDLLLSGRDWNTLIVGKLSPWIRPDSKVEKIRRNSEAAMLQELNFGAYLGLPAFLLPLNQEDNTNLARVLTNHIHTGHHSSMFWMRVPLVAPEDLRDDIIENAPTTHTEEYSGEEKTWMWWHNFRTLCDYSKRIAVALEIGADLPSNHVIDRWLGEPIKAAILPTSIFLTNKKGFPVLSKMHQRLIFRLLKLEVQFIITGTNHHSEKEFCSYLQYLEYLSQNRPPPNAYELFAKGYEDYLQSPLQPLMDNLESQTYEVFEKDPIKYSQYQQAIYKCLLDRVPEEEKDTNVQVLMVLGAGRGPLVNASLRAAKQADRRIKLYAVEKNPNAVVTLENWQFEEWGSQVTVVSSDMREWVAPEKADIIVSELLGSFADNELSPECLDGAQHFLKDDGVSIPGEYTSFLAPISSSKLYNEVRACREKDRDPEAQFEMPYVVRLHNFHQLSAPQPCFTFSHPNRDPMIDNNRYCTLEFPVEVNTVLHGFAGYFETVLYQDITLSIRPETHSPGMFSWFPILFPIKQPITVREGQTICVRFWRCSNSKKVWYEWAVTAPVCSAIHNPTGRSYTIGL
T1 sequence (Q9BQA1 whole entry partner): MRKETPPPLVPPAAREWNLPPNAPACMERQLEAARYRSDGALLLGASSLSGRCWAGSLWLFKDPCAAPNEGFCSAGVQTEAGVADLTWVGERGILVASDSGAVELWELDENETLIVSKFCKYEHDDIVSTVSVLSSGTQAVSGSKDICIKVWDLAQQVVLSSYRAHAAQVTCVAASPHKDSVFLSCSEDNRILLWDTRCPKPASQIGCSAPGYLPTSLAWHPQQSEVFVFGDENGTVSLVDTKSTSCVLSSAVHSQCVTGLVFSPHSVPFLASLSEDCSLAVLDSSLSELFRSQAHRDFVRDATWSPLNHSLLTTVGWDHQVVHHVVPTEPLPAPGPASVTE

Row | SMILES | IC50 (PRMT5 [1]) | IC50 (PRMT5 [2]) | IC50 (PRMT5 [3]) | IC50 [4] | IC50 [5] | MTAP intact/deleted ratio [5] | IC50 [6]
1 | C[C@H]1CC[C@H](c2ccncc2)N(C(=O)C(=O)Nc2cncc(C(N)=O)c2)C1 (single isomer, unassigned) [Compound 539, 5-(2-(5-methyl-2-(pyridin-4-yl)piperidin-1-yl)-2-oxoacetamido)nicotinamide] | 50 to 500 nM | 50 to 500 nM | < 50 nM | > 1000 nM | < 100 nM | A (an IC50 ratio greater than or equal to 10 fold) | 1000 to 10000 nM
2 | C[C@@H]1CC[C@@H](c2ccncc2)N(C(=O)C(=O)Nc2cncc(C(N)=O)c2)C1 (single isomer, unassigned) [Compound 544, 5-(2-(5-methyl-2-(pyridin-4-yl)piperidin-1-yl)-2-oxoacetamido)nicotinamide] | > 500 nM | > 500 nM | > 500 nM | > 1000 nM | > 1000 nM | C (an IC50 ratio of less than 3 fold) | > 10000 nM
3 | COc1cc([C@@H]2CC[C@@H](C)CN2C(=O)C(=O)Nc2cnc(N)c(C)c2)ccn1 (single isomer, unassigned) [Compound 545] | 50 to 500 nM | < 50 nM | < 50 nM | 100 to 1000 nM | < 100 nM | B (an IC50 ratio greater than or equal to 3 fold but lower than 10 fold) | < 1000 nM
4 | COc1ncc(NC(=O)C(=O)N2C[C@H](C)CC[C@H]2c2cnc3[nH]ncc3c2)cc1C(N)=O (single isomer, unassigned) [Compound 546] | 50 to 500 nM | 50 to 500 nM | < 50 nM | > 1000 nM | 100 to 1000 nM | A (an IC50 ratio greater than or equal to 10 fold) | 1000 to 10000 nM
5 | CC[C@H]1CC[C@H](c2ccccc2)N(C(=O)C(=O)Nc2cncc(C(N)=O)c2)C1 (single isomer, unassigned) [Compound 547] | 50 to 500 nM | 50 to 500 nM | < 50 nM | > 1000 nM | < 100 nM | A (an IC50 ratio greater than or equal to 10 fold) | 1000 to 10000 nM
6 | Cc1cc(NC(=O)C(=O)N2C[C@H](C)CC[C@H]2c2ccc(C(F)(F)F)cc2)cnc1N (single isomer, unassigned) [Compound 548] | 50 to 500 nM | 50 to 500 nM | < 50 nM | < 100 nM | < 100 nM | C (an IC50 ratio of less than 3 fold) | < 1000 nM
7 | Cc1cc(NC(=O)C(=O)N2C[C@H](C)CC[C@H]2c2cnc3[nH]ncc3c2)cnc1N (single isomer, unassigned) [Compound 549] | 50 to 500 nM | 50 to 500 nM | < 50 nM | 100 to 1000 nM | < 100 nM | A (an IC50 ratio greater than or equal to 10 fold) | 1000 to 10000 nM
8 | C[C@@H]1CC[C@@H](c2cnc3[nH]ncc3c2)N(C(=O)C(=O)Nc2cncc(C(N)=O)c2)C1 (single isomer, unassigned) [Compound 550] | > 500 nM | > 500 nM | > 500 nM | > 1000 nM | > 1000 nM | C (an IC50 ratio of less than 3 fold) | > 10000 nM
9 | Cc1cc([C@H]2CC[C@H](C)CN2C(=O)C(=O)Nc2cnc(N)c(C)c2)ccc1O (single isomer, unassigned) [Compound 551] | > 500 nM | > 500 nM | > 500 nM | > 1000 nM | > 1000 nM | C (an IC50 ratio of less than 3 fold) | > 10000 nM
10 | C[C@H]1CC[C@H](c2cc3cn[nH]c3cc2F)N(C(=O)C(=O)Nc2cncc(C(N)=O)c2)C1 (single isomer, unassigned) [Compound 553] | 50 to 500 nM | 50 to 500 nM | < 50 nM | > 1000 nM | 100 to 1000 nM | A (an IC50 ratio greater than or equal to 10 fold) | 1000 to 10000 nM
11 | Cc1cc(NC(=O)C(=O)N2C[C@H](C)CC[C@H]2[C@H]2CCC[C@H](O)C2)cnc1N (single isomer, unassigned) [Compound 559] | 50 to 500 nM | 50 to 500 nM | < 50 nM | > 1000 nM | 100 to 1000 nM | A (an IC50 ratio greater than or equal to 10 fold) | 1000 to 10000 nM
12 | CC(=O)N[C@H]1C[C@H]([C@@H]2CC[C@H](C)CN2C(=O)C(=O)Nc2cnc(N)c(C)c2)C1 (single isomer, unassigned) [Compound 562] | > 500 nM | > 500 nM | > 500 nM | > 1000 nM | > 1000 nM | C (an IC50 ratio of less than 3 fold) | > 10000 nM
13 | CC(=O)N[C@H]1C[C@H]([C@H]2CC[C@H](C)CN2C(=O)C(=O)Nc2cnc(N)c(C)c2)C1 (single isomer, unassigned) [Compound 563] | > 500 nM | > 500 nM | > 500 nM | > 1000 nM | > 1000 nM | C (an IC50 ratio of less than 3 fold) | > 10000 nM
14 | CC(=O)N[C@H]1C[C@H]([C@H]2CC[C@@H](C)CN2C(=O)C(=O)Nc2cnc(N)c(C)c2)C1 (single isomer, unassigned) [Compound 564] | 50 to 500 nM | > 500 nM | 50 to 500 nM | > 1000 nM | > 1000 nM | B (an IC50 ratio greater than or equal to 3 fold but lower than 10 fold) | > 10000 nM
15 | CC[C@@H]1CC[C@H](c2ccccc2)N(C(=O)C(=O)Nc2cncc(C(N)=O)c2)C1 (single isomer, unassigned) [Compound 565] | 50 to 500 nM | > 500 nM | 50 to 500 nM | > 1000 nM | 100 to 1000 nM | A (an IC50 ratio greater than or equal to 10 fold) | > 10000 nM
16 | Cc1cc(NC(=O)C(=O)N2C[C@@H](C)CC[C@@H]2[C@H]2CCC[C@@H](O)C2)cnc1N (single isomer, unassigned) [Compound 566] | > 500 nM | 50 to 500 nM | 50 to 500 nM | > 1000 nM | 100 to 1000 nM | A (an IC50 ratio greater than or equal to 10 fold) | 1000 to 10000 nM
17 | Cc1cc(NC(=O)C(=O)N2C[C@H](C)CC[C@H]2[C@@H]2CCC[C@H](O)C2)cnc1N (single isomer, unassigned) [Compound 567] | > 500 nM | > 500 nM | > 500 nM | > 1000 nM | > 1000 nM | C (an IC50 ratio of less than 3 fold) | > 10000 nM
18 | Cc1cc(NC(=O)C(=O)N2C[C@@H](C)CC[C@@H]2[C@@H]2CCC[C@@H](O)C2)cnc1N (single isomer, unassigned) [Compound 568] | > 500 nM | > 500 nM | > 500 nM | > 1000 nM | > 1000 nM | C (an IC50 ratio of less than 3 fold) | > 10000 nM
19 | C[C@H]1CC[C@H](c2ccc(Cl)cc2)N(C(=O)C(=O)Nc2cncc(C(N)=O)c2)C1 (single isomer, unassigned) [Compound 569] | > 500 nM | > 500 nM | > 500 nM | > 1000 nM | > 1000 nM | C (an IC50 ratio of less than 3 fold) | > 10000 nM
20 | C[C@@H]1CC[C@@H](c2ccc(Cl)cc2)N(C(=O)C(=O)Nc2cncc(C(N)=O)c2)C1 (single isomer, unassigned) [Compound 570] | 50 to 500 nM | 50 to 500 nM | < 50 nM | > 1000 nM | < 100 nM | A (an IC50 ratio greater than or equal to 10 fold) | 1000 to 10000 nM
21 | C[C@@H]1CC[C@@H](c2cc3cn[nH]c3cc2F)N(C(=O)C(=O)Nc2cncc(C(N)=O)c2)C1 (single isomer, unassigned) [Compound 571] | > 500 nM | > 500 nM | > 500 nM | > 1000 nM | > 1000 nM | C (an IC50 ratio of less than 3 fold) | > 10000 nM
22 | Cc1cc([C@@H]2CC[C@@H](C)CN2C(=O)C(=O)Nc2cnc(N)c(C)c2)ccc1O (single isomer, unassigned) [Compound 572] | < 50 nM | 50 to 500 nM | 50 to 500 nM | < 100 nM | < 100 nM | A (an IC50 ratio greater than or equal to 10 fold) | < 1000 nM

Source: patent US11999727B2 (Tango Therapeutics, Inc., priority 2020, dated 2024)
